The values that follow come from patent US20240366723A1, “COMBINATION THERAPY FOR THE TREATMENT OF ENTERIC NEUROPATHIES” (TRANSFERT PLUS, LIMITED PARTNERSHIP, priority 2021, published 2024).

The conditions of assay [1]: literature reports, various models; cited from earlier work.
For assay [2], the system named is mouse model for Trisomy 21 [Collagen VI]-associated HSCR. The conditions noted are these: previous study, same mouse model; Soret et al., Gastroenterology 2020, Supplementary FIG. 1G; cited from earlier work.
Assay [3] deals with Homozygous Holstein^Tg/Tg mice. Description: Survival of Hol^Tg/Tg mice after enema treatment (model of Trisomy 21 [Collagen VI]-associated HSCR). Type of assay: in vivo, mouse. The protocol:
Mice. Homozygous Holstein^Tg/Tg mice (Hol^Tg/Tg; a model for Trisomy 21 [Collagen VI]-associated HSCR) were treated with either 10 μl enemas of GDNF (1 μg/μl), or 10 μl of GDNF combined with 5 mM of amino-butyrate acid (Butyrate) or other growth factors at 1 μg/μl, or vehicle (1×PBS) as control. Enemas were administered once a day from postnatal day (P) 4 until P8, and mice were monitored daily until P60 or megacolon-associated death. Survival graphs and statistical analyses were generated with GraphPad Prism software. One-way ANOVA followed by post-hoc Tukey multiple comparison test was carried out, and significance level was set at P<0.05. Number of biological replicates (n) of each cohort is indicated where relevant in Figures.
It was tested whether molecules known to have neurotrophic effects could improve the effect of GDNF on survival in a mouse model for Trisomy 21 [Collagen VI]-associated HSCR) (39).
The molecules that were tested in the present study are: Bone morphogenetic protein 4 (BMP4), Nerve growth factor (NGF), Brain-derived neurotrophic factor (BDNF), Mesencephalic Astrocyte Derived Neurotrophic Factor (MANF), Cerebral Dopamine Neurotrophic Factor (CDNF), Epidermal Growth Factor (EGF), Neurturin (NRTN), Fibroblast growth factor 2 (FGF2), butyrate and Retinoic Acid (RA).

“Also recorded” adds a separate entry of the source.

With FGF2: Fibroblast growth factor 2, in assay [1], the Reported neurotrophic activity result is “FGF2 enhances the proliferation and differentiation of”.
“CDNF: Cerebral Dopamine Neurotrophic Factor”: the Reported neurotrophic activity result in assay [1] was “CDNF is essential for enteric neuronal development”.
In the case of EGF: Epidermal Growth Factor, the Reported neurotrophic activity entry in assay [1] is “EGF is chemoattractant and chemokinetic molecule for”.
On to `NCCc1c[nH]c2ccc(O)cc12` [serotonin], for which the “survival of mice, combination with GDNF relative to GDNF alone” value in assay [2] was “did not improve the survival of mice relative to GDNF alone”.
For “endothelin 3: molecule known to have neurotrophic effects, combined with GDNF in a previous study”, the “survival of mice, combination with GDNF relative to GDNF alone” value in assay [2] is listed as “did not improve the survival of mice relative to GDNF alone”.
For `O=C1O[C@H]([C@@H](O)CO)C(O)=C1O` [vitamin C], the “survival of mice, combination with GDNF relative to GDNF alone” value in assay [2] is on record as “did not improve the survival of mice relative to GDNF alone”.
Take `CCCC(=O)O` [butyrate]: the “effect on survival of combination with GDNF relative to GDNF alone” value in assay [3] (10 μl enema of GDNF 1 μg/μl combined with 5 mM butyrate or other growth factor at 1 μg/μl, once a day P4 until P8, monitored until P60) was “significantly potentiate the effect of recombinant GDNF; also recorded: acts synergistically with GDNF to improve survival”. Also, the “effect on mouse survival, substance alone” value in assay [3] (10 μl enema once a day P4 until P8, butyrate 5 mM, compared with vehicle (1×PBS), monitored until P60) was “did not have any effect on survival; also recorded: no effect on mouse survival”.
